Key:
[1] = test system: antibodies in sera from SARS patients (sera 1a, 1b, 2, 6, 37, 62, London, SARS-yellow, SARS-green); assay type: binding, human; parameters: Binding of serum 6 to linear peptides of protein X1 of SARS-CoV Urbani / Binding of serum 37 to linear peptides of protein X1 of SARS-CoV Urbani / Binding of serum 6 to looped/cyclic peptide (PEPSCAN-ELISA) / Binding of serum 37 to looped/cyclic peptide (PEPSCAN-ELISA) / Binding of serum 37 to looped/cyclic peptides of protein X1 of SARS-CoV Urbani / Binding of serum 6 to linear peptides of protein X2 / Binding of serum 37 to linear peptides of protein X2 / Binding of serum 37 to looped/cyclic peptides of protein X2 of SARS-CoV Urbani / Binding of serum 6 to linear peptides of protein M of SARS-CoV Urbani / Binding of serum 37 to linear peptides of protein M of SARS-CoV Urbani / Binding of serum 6 to looped/cyclic peptides of protein M of SARS-CoV Urbani / Binding of serum 37 to looped/cyclic peptides of protein M of SARS-CoV Urbani / Binding of serum 6 to linear peptides of protein X3 of SARS-CoV Urbani / Binding of serum 37 to linear peptides of protein X3 of SARS-CoV Urbani / Binding of serum 37 to looped/cyclic peptides of protein X3 of SARS-CoV Urbani / Binding of serum 6 to linear peptides of protein X4 of SARS-CoV Urbani / Binding of serum 37 to linear peptides of protein X4 of SARS-CoV Urbani / Binding of serum 37 to looped/cyclic peptides of protein X4 of SARS-CoV Urbani / Binding of serum 6 to linear peptides of protein X5 of SARS-CoV Urbani / Binding of serum 37 to linear peptides of protein X5 of SARS-CoV Urbani / Binding of serum 37 to looped/cyclic peptides of protein X5 of SARS-CoV Urbani / Binding of serum 6 to linear peptides of protein N of SARS-CoV Urbani / Binding of serum 37 to linear peptides of protein N of SARS-CoV Urbani / Binding of serum 6 to linear peptide (PEPSCAN-ELISA) / Binding of serum 1a to looped/cyclic peptides of protein N of SARS-CoV Urbani / Binding of serum 1b to looped/cyclic peptides of protein N of SARS-CoV Urbani / Binding of serum 2 to looped/cyclic peptides of protein N of SARS-CoV Urbani / Binding of serum 6 to looped/cyclic peptides of protein N of SARS-CoV Urbani / Binding of serum 37 to looped/cyclic peptides of protein N of SARS-CoV Urbani / Binding of serum 62 to looped/cyclic peptides of protein N of SARS-CoV Urbani / Binding of serum London to looped/cyclic peptides of protein N of SARS-CoV Urbani / Binding of serum SARS-green to looped/cyclic peptides of protein N of SARS-CoV Urbani: unit not given here
[2] = test system: control sera (pooled serum of ten healthy LUMC hospital workers; commercial negative donor pooled serum from the Dutch bloodbank); assay type: binding, human; parameters: Binding of Control serum LUMC to linear peptides / Binding of Control serum Blood-bank to linear peptides / Binding of Control serum LUMC to looped peptides / Binding of Control Serum Blood-Bank to Looped peptides / Binding of Control serum LUMC to linear peptides of the protein M of SARS-CoV Urbani / Binding of Control serum Blood-bank to linear peptides of the protein M of SARS-CoV Urbani / Binding of Control serum LUMC to looped peptides of the protein M of SARS-CoV Urbani / Binding of Control Serum Blood-Bank to Looped peptides of the protein M of SARS-CoV Urbani: unit not given here
[3] = test system: recombinant human anti-SARS-CoV antibody 03-018; assay type: binding; parameters: Binding of antibody 03-018 to linear peptides of the N protein of SARS-CoV Urbani / Binding of antibody 03-018 to looped/cyclic peptides of the N protein of SARS-CoV Urbani: unit not given here
[4] = test system: rabbit serum obtained by immunizing a rabbit with the SARS-CoV strain Frankfurt 1; assay type: binding; parameters: Binding of a rabbit serum to linear peptides / Binding of a rabbit serum to looped peptides / Rabbit serum linear peptides / Rabbit serum looped peptides / Binding of a rabbit serum to linear peptides of protein N of SARS-CoV Urbani (Rabbit serum linear peptides) / Binding of a rabbit serum to looped/cyclic peptides of protein N of SARS-CoV Urbani (Rabbit serum looped peptides): unit not given here

Row | Sequence | Binding of serum 1a to linear peptides of protein N of SARS-CoV Urbani [1] | Binding of serum 1a to looped/cyclic peptides of protein N of SARS-CoV Urbani [1] | Binding of serum 1b to linear peptides of protein N of SARS-CoV Urbani [1] | Binding of serum 1b to looped/cyclic peptides of protein N of SARS-CoV Urbani [1] | Binding of serum 2 to linear peptides of protein N of SARS-CoV Urbani [1] | Binding of serum 2 to looped/cyclic peptides of protein N of SARS-CoV Urbani [1] | Binding of serum 6 to looped/cyclic peptides of protein N of SARS-CoV Urbani [1] | Binding of serum 37 to looped/cyclic peptides of protein N of SARS-CoV Urbani [1] | Binding of serum 62 to looped/cyclic peptides of protein N of SARS-CoV Urbani [1] | Binding of serum London to looped/cyclic peptides of protein N of SARS-CoV Urbani [1] | Binding of serum SARS-green to looped/cyclic peptides of protein N of SARS-CoV Urbani [1] | Binding of serum SARS-yellow to looped/cyclic peptides of protein N of SARS-CoV Urbani [1] | Binding of Control Serum Blood-Bank to Looped peptides [2] | Binding of Control serum Blood-bank to linear peptides [2] | Binding of Control serum LUMC to linear peptides [2] | Binding of Control serum LUMC to looped peptides [2] | Binding of antibody 03-018 to linear peptides of the N protein of SARS-CoV Urbani [3] | Binding of antibody 03-018 to looped/cyclic peptides of the N protein of SARS-CoV Urbani [3] | Binding of a rabbit serum to linear peptides of protein N of SARS-CoV Urbani (Rabbit serum linear peptides) [4] | Binding of a rabbit serum to looped/cyclic peptides of protein N of SARS-CoV Urbani (Rabbit serum looped peptides) [4] | further results
1 | YYLGTGPEASLPYGA | 0.3 | 0.4 | 0.2 | 0.4 | 0.2 | 0.4 | 0.3 | 0.9 | 0.7 | 0.5 | 0.5 | 0.7 | 0.8 | 0.7 | 0.7 | 0.8 | 0.1 | 0.2 | 0.1 | 0.5 | Binding of serum 6 to linear peptides of protein N of SARS-CoV Urbani [1]: 0.2; Binding of serum 37 to linear peptides of protein N of SARS-CoV Urbani [1]: 0.7; Binding of serum 62 to linear peptides of protein N of SARS-CoV Urbani [1]: 0.7; Binding of serum London to linear peptides of protein N of SARS-CoV Urbani [1]: 0.4; Binding of serum SARS-green to linear peptides of protein N of SARS-CoV Urbani [1]: 0.2; Binding of serum SARS-yellow to linear peptides of protein N of SARS-CoV Urbani [1]: 0.8
2 | GPEQTQGNFGDQDLI |  | 0.4 |  | 0.4 |  | 0.4 | 0.2 | 0.6 | 0.4 | 0.3 | 0.9 | 0.6 | 0.5 | 0.8 | 0.8 | 0.6 | 0.1 | 0.2 | 0.2 | 0.3 | Recognition of the peptide by sera of SARS-CoV infected individuals, and form (linear, looped/cyclic) in which it is recognized [1]: recognized in linear form
3 | RGNSRNSTPGSSRGN |  | 0.8 |  | 0.6 |  | 0.4 | 0.4 | 0.6 | 0.5 | 0.4 | 0.3 | 0.5 | 0.6 | 0.8 | 0.6 | 0.6 | 0.1 | 0.2 | 0.2 | 0.7 | Binding of serum 1a to linear peptide (PEPSCAN-ELISA) [1]: 0.7; Binding of serum 1b to linear peptide (PEPSCAN-ELISA) [1]: 0.4; Binding of serum 2 to linear peptide (PEPSCAN-ELISA) [1]: 0.2; Binding of serum 6 to linear peptide (PEPSCAN-ELISA) [1]: 0.2; Binding of serum 37 to linear peptide (PEPSCAN-ELISA) [1]: 0.7; Binding of serum 62 to linear peptide (PEPSCAN-ELISA) [1]: 0.7; Binding of serum London to linear peptide (PEPSCAN-ELISA) [1]: 0.4; Binding of serum SARS-green to linear peptide (PEPSCAN-ELISA) [1]: 0.2; Binding of serum SARS-yellow to linear peptide (PEPSCAN-ELISA) [1]: 0.8
4 | QASSRSSSRSRGNSR |  | 0.3 |  | 0.2 |  | 0.4 | 0.3 | 0.5 | 0.4 | 0.4 | 0.1 | 0.4 | 0.5 | 0.7 | 0.7 | 0.5 | 0.1 | 0.2 | 0.3 | 1.1 | Binding of serum 1a to linear peptide (PEPSCAN-ELISA) [1]: 0.2; Binding of serum 1b to linear peptide (PEPSCAN-ELISA) [1]: 0.1; Binding of serum 2 to linear peptide (PEPSCAN-ELISA) [1]: 0.3; Binding of serum 6 to linear peptide (PEPSCAN-ELISA) [1]: 0.3; Binding of serum 37 to linear peptide (PEPSCAN-ELISA) [1]: 0.6; Binding of serum 62 to linear peptide (PEPSCAN-ELISA) [1]: 0.6; Binding of serum London to linear peptide (PEPSCAN-ELISA) [1]: 0.5; Binding of serum SARS-green to linear peptide (PEPSCAN-ELISA) [1]: 0.2; Binding of serum SARS-yellow to linear peptide (PEPSCAN-ELISA) [1]: 0.6
5 | KDHIGTRNPNNNAAT | 0.3 | 0.4 | 0.2 | 0.3 | 0.4 | 0.5 | 0.4 | 0.5 | 0.4 | 0.4 | 0.1 | 0.3 | 0.6 | 0.9 | 0.8 | 0.6 | 0.1 | 0.2 | 0.1 | 0.2 | Binding of serum 6 to linear peptides of protein N of SARS-CoV Urbani [1]: 0.3; Binding of serum 37 to linear peptides of protein N of SARS-CoV Urbani [1]: 0.9; Binding of serum 62 to linear peptides of protein N of SARS-CoV Urbani [1]: 0.8; Binding of serum London to linear peptides of protein N of SARS-CoV Urbani [1]: 0.5; Binding of serum SARS-green to linear peptides of protein N of SARS-CoV Urbani [1]: 0.5; Binding of serum SARS-yellow to linear peptides of protein N of SARS-CoV Urbani [1]: 0.8
